The record followed here is patent US11426397B2, “Piperidinyl- and piperazinyl-substituted heteroaromatic carboxamides as modulators of GPR6” (TAKEDA PHARMACEUTICAL COMPANY LIMITED, priority 2017, dated 2022).

The target of this assay is T1, GPR6 receptor expressed in CHO-K1 cells (Homo sapiens, UniProt P46095).
T1 construct: expressed in transfected cells
T1 sequence (P46095 whole entry): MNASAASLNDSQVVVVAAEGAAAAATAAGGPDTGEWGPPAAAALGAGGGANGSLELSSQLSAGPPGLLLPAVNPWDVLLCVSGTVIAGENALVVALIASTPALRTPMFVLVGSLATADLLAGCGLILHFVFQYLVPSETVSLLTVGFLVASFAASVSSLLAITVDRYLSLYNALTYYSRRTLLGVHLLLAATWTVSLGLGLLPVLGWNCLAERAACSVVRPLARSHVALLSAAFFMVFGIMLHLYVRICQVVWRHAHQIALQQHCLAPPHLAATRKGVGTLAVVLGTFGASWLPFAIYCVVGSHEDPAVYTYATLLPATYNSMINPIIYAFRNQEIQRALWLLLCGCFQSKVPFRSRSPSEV
The assay can be described thus: In vitro inhibition of cAMP (EC50), cell-based HTRF cAMP assay. The following applies: inhibition of constitutive cAMP activity of GPR6 in CHO-K1 cells. In a few lines: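 Cellular cAMP measured by Lance Ultra HTRF (Eu-cAMP tracer, ULight anti-cAMP), with EC50 fitted by four-parameter logistic. Test compounds sat on cells 45 min, 37 °C, in pH 7.4 Ringer's with 300 μM IBMX and 0.5% BSA; GPR6 in CHO-K1 induced beforehand by doxycycline, 2 μg/mL, 20 h.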
A general note: Time-resolved FRET reads energy transfer from a long-lived donor to a nearby acceptor.
For the compound `N#Cc1ccc(N2CCC(Oc3ccc(F)cc3F)CC2)c(NC(=O)c2cnc3ccccn3c2=O)c1` [Example 178, N-(5-cyano-2-(4-(2,4-difluorophenoxy)piperidin-1-yl)phenyl)-4-oxo-4H-pyrido[1,2-a]pyrimidine-3-carboxamide], the “pEC50, in vitro inhibition of cAMP” value is listed as 6.8.

In the case of `O=C(Nc1ccc2nccnc2c1N1CCC(Oc2ccc(F)cc2F)CC1)c1ccccn1` [Example 150, N-(5-(4-(2,4-difluorophenoxy)piperidin-1-yl)quinoxalin-6-yl)picolinamide], the “pEC50, in vitro inhibition of cAMP” value was under 5.7.

`COc1nc(C)ccc1C(=O)Nc1cc(C#N)c(F)cc1N1CCC(Oc2ccc(F)cc2F)CC1` [Example 39, N-(5-cyano-2-(4-(2,4-difluorophenoxy)piperidin-1-yl)-4-fluorphenyl)-2-methoxy-6-methylnicotinamide]: the “pEC50, in vitro inhibition of cAMP” value was 7.3.

Take `COc1ncccc1C(=O)Nc1cc(S(C)(=O)=O)ccc1N1CCC(Oc2ccc(F)cc2F)CC1` [Example 5, N-(2-(4-(2,4-difluorophenoxy)piperidin-1-yl)-5-(methylsulfonyl)phenyl)-2-methoxynicotinamide]: the “pEC50, in vitro inhibition of cAMP” value is recorded as 7.4.

Consider `Cc1cc(C(=O)Nc2cc(C#N)ccc2N2CCC(Oc3ccc(F)cc3F)CC2)no1` [Example 41, N-(5-cyano-2-(4-(2,4-difluorophenoxy)piperidin-1-yl)phenyl)-5-methylisoxazole-3-carboxamide], for which the “pEC50, in vitro inhibition of cAMP” value was 6.4.

For the compound `Cn1cc(C(=O)Nc2cc(C#N)ccc2N2CCC(Oc3ccc(F)cc3F)CC2)nn1` [Example 145, N-(5-cyano-2-(4-(2,4-difluorophenoxy)piperidin-1-yl)phenyl)-1-methyl-1H-1,2,3-triazole-4-carboxamide], the “pEC50, in vitro inhibition of cAMP” value stood at 6.6.

For `COc1nn(C)cc1C(=O)Nc1cc(C#N)cnc1N1CCN(Cc2ccc(OC(F)F)cc2)CC1` [Example 162, N-(5-cyano-2-(4-(4-(difluoromethoxy)benzyl)piperazin-1-yl)pyridin-3-yl)-3-methoxy-1-methyl-1H-pyrazole-4-carboxamide], the “pEC50, in vitro inhibition of cAMP” value amounted to 6.6.

On to `COc1cc(Br)ccc1C(=O)Nc1cc(C#N)ccc1N1CCC(Oc2ccc(F)cc2F)CC1` [Example 226, 4-bromo-N-(5-cyano-2-(4-(2,4-difluorophenoxy)piperidin-1-yl)phenyl)-2-methoxybenzamide], for which the “pEC50, in vitro inhibition of cAMP” value came out at 7.0.

As for `Cn1cccc(C(=O)Nc2cc(C#N)ccc2N2CCC(C(F)c3cc(F)ccc3F)CC2)c1=O` (stereo not drawn) [Example 87], the “pEC50, in vitro inhibition of cAMP” value is given as 7.2.

With `COc1ccc(OC)c(C(=O)Nc2cc(C#N)ccc2N2CCC(Oc3ccc(F)cc3F)CC2)c1` [Example 205, N-(5-cyano-2-(4-(2,4-difluorophenoxy)piperidin-1-yl)phenyl)-2,5-dimethoxybenzamide], the “pEC50, in vitro inhibition of cAMP” value is 6.0.

Regarding `Cc1ccc(Cl)c(OC2CCN(c3ncc(C#N)cc3NC(=O)c3ccccn3)CC2)c1` [Example 68, N-(2-(4-(2-chloro-5-methylphenoxy)piperidin-1-yl)-5-cyanopyridin-3-yl)picolinamide], the “pEC50, in vitro inhibition of cAMP” value was 6.6.

For the compound `COc1ncccc1C(=O)Nc1cnc(C(=O)N(C)C)nc1N1CCC(Oc2ccc(F)cc2F)CC1` [Example 281, 4-(4-(2,4-difluorophenoxy)piperidin-1-yl)-5-(2-methoxynicotinamido)-N,N-dimethylpyrimidine-2-carboxamide], the “pEC50, in vitro inhibition of cAMP” value is reported as 6.4.

As to `COc1nn(C)cc1C(=O)Nc1cc(C#N)ncc1N1CCN(Cc2ccc(F)c(F)c2F)CC1` [Example 266, N-(2-cyano-5-(4-(2,3,4-trifluorobenzyl)piperazin-1-yl)pyridin-4-yl)-3-methoxy-1-methyl-1H-pyrazole-4-carboxamide], the “pEC50, in vitro inhibition of cAMP” value stood at 6.8.

Take `COCc1cc(N2CCC(Oc3ccc(F)cc3F)CC2)c(NC(=O)c2cccnc2OC)cn1` [Example 268]: the “pEC50, in vitro inhibition of cAMP” value was 6.9.

For the compound `COc1ccc(OC2CCN(c3ccc(S(C)(=O)=O)cc3NC(=O)c3cn(CF)nc3OC)CC2)c(F)c1` [Example 2, N-(2-(4-(2-fluoro-4-methoxyphenoxy)piperidin-1-yl)-5-(methylsulfonyl)phenyl)-1-(fluoromethyl)-3-methoxy-1H-pyrazole-4-carboxamide], the “pEC50, in vitro inhibition of cAMP” value is on record as 7.0.

Take `COc1nc(C)ccc1C(=O)Nc1cnc(C#N)nc1N1CCC(Oc2ccc(F)cc2F)CC1` [Example 280, N-(2-cyano-4-(4-(2,4-difluorophenoxy)piperidin-1-yl)pyrimidin-5-yl)-2-methoxy-6-methylnicotinamide]: the “pEC50, in vitro inhibition of cAMP” value turned out to be 7.1.

For the compound `COCc1cnc(N2CCN(Cc3ccc(F)cc3F)CC2)c(NC(=O)c2cccnc2OC)c1` [Example 33, N-(2-(4-(2,4-difluorobenzyl)piperazin-1-yl)-5-(methoxymethyl)pyridin-3-yl)-2-methoxynicotinamide], the “pEC50, in vitro inhibition of cAMP” value stood at 7.2.

Turning to `Cc1cccc2ncc(C(=O)Nc3cc(C#N)ccc3N3CCC(Oc4ccc(F)cc4F)CC3)c(=O)n12` [Example 187, N-(5-cyano-2-(4-(2,4-difluorophenoxy)piperidin-1-yl)phenyl)-6-methyl-4-oxo-4H-pyrido[1,2-a]pyrimidine-3-carboxamide], the “pEC50, in vitro inhibition of cAMP” value turned out to be 6.6.

Take `COc1ncccc1C(=O)Nc1cc(C#N)c(C(=O)N(C)C)cc1N1CCC(Oc2ccc(F)cc2F)CC1` [Example 273]: the “pEC50, in vitro inhibition of cAMP” value stood at 7.3.

Turning to `N#Cc1cnc(N2CCC(Oc3ccc(F)cc3F)CC2)c(NC(=O)c2cc(Cl)ccn2)c1` [Example 55, 4-chloro-V-(5-cyano-2-(4-(2,4-difluorophenoxy)piperidin-1-yl)pyridin-3-yl)picolinamide], the “pEC50, in vitro inhibition of cAMP” value is listed as 7.3.

Consider `Cn1cnc(C(=O)Nc2cc(C#N)ccc2N2CCC(Oc3ccc(F)cc3F)CC2)c1` [Example 45, N-(5-cyano-2-(4-(2,4-difluorophenoxy)piperidin-1-yl)phenyl)-1-methyl-1H-imidazole-4-carboxamide], for which the “pEC50, in vitro inhibition of cAMP” value is on record as 6.6.

With `Cn1cccc(C(=O)Nc2cc(C#N)ccc2N2CCC(Oc3cc(F)ccc3F)CC2)c1=O` [Example 15, N-(5-cyano-2-(4-(2,5-difluorophenoxy)piperidin-1-yl)phenyl)-1-methyl-2-oxo-1,2-dihydropyridine-3-carboxamide], the “pEC50, in vitro inhibition of cAMP” value was found to be 7.1.

Turning to `COc1ccc(CN2CCN(c3ccc(C#N)cc3NC(=O)c3cccnc3OC)CC2)nc1` [Example 250, N-(5-cyano-2-(4-((5-methoxypyridin-2-yl)methyl)piperazin-1-yl)phenyl)-2-methoxynicotinamide], the “pEC50, in vitro inhibition of cAMP” value came to 6.0.

Consider `COc1nn(C)cc1C(=O)Nc1cc(C#N)cnc1N1CCN(Cc2c(F)cc(Cl)cc2F)CC1` [Example 174, N-(2-(4-(4-chloro-2,6-difluorobenzyl)piperazin-1-yl)-5-cyanopyridin-3-yl)-3-methoxy-1-methyl-1H-pyrazole-4-carboxamide], for which the “pEC50, in vitro inhibition of cAMP” value is 7.1.

`Cn1cccc(C(=O)Nc2cc(C#N)ccc2N2CCC(Oc3ccc(F)cc3)CC2)c1=O` [Example 4, N-(5-cyano-2-(4-(4-fluorophenoxy)piperidin-1-yl)phenyl)-1-methyl-2-oxo-1,2-dihydropyridine-3-carboxamide]: the “pEC50, in vitro inhibition of cAMP” value was 6.7.

As for `CCc1cc(C(=O)Nc2cc(C#N)ccc2N2CCC(Oc3ccc(F)cc3F)CC2)no1` [Example 118, N-(5-cyano-2-(4-(2,4-difluorophenoxy)piperidin-1-yl)phenyl)-5-ethylisoxazole-3-carboxamide], the “pEC50, in vitro inhibition of cAMP” value is 6.4.

With `N#Cc1ccc(N2CCC(Oc3ccc(F)cc3F)CC2)c(NC(=O)c2cocn2)c1` [Example 122, N-(5-cyano-2-(4-(2,4-difluorophenoxy)piperidin-1-yl)phenyl)oxazole-4-carboxamide], the “pEC50, in vitro inhibition of cAMP” value was 6.1.

As to `COc1ncccc1C(=O)Nc1cc(C#N)ccc1N1CCN(C(=O)c2ccc(F)cc2)CC1` [Example 286, N-(5-cyano-2-(4-(4-fluorobenzoyl)piperazin-1-yl)phenyl)-2-methoxynicotinamide], the “pEC50, in vitro inhibition of cAMP” value is 6.7.

For the compound `COc1ncc(NC(=O)c2ccc(C)nc2OC)c(N2CCC(Oc3ccc(F)cc3F)CC2)n1` [Example 23, N-(4-(4-(2,4-difluorophenoxy)piperidin-1-yl)-2-methoxypyrimidin-5-yl)-2-methoxy-6-methylnicotinamide], the “pEC50, in vitro inhibition of cAMP” value worked out at 6.3.

Consider `COc1nn(C)cc1C(=O)Nc1cc(C#N)cnc1N1CCN(Cc2cccc(OC(F)F)c2)CC1` [Example 164, N-(5-cyano-2-(4-(3-(difluoromethoxy)benzyl)piperazin-1-yl)pyridin-3-yl)-3-methoxy-1-methyl-1H-pyrazole-4-carboxamide], for which the “pEC50, in vitro inhibition of cAMP” value was 6.5.

On to `Cc1sc2ncc(C(=O)Nc3cc(C#N)ccc3N3CCC(Oc4ccc(F)cc4F)CC3)c(=O)n2c1C` [Example 198, N-(5-cyano-2-(4-(2,4-difluorophenoxy)piperidin-1-yl)phenyl)-2,3-dimethyl-5-oxo-5H-thiazolo[3,2-a]pyrimidine-6-carboxamide], for which the “pEC50, in vitro inhibition of cAMP” value stood at 6.4.

Consider `COc1cscc1C(=O)Nc1cc(C#N)ccc1N1CCC(Oc2ccc(F)cc2F)CC1` [Example 47, N-(5-cyano-2-(4-(2,4-difluorophenoxy)piperidin-1-yl)phenyl)-4-methoxythiophene-3-carboxamide], for which the “pEC50, in vitro inhibition of cAMP” value stood at 7.2.

Turning to `N#Cc1ccc(N2CCC(Oc3ccc(F)cc3F)CC2)c(NC(=O)c2cnn3c2OCCC3)c1` [Example 53, N-(5-cyano-2-(4-(2,4-difluorophenoxy)piperidin-1-yl)phenyl)-6,7-dihydro-5H-pyrazolo[5,1-b][1,3]oxazine-3-carboxamide], the “pEC50, in vitro inhibition of cAMP” value amounted to 6.3.
